From patent publication US20220151236A1, “NOVEL OXADIAZOLE COMPOUNDS FOR CONTROLLING OR PREVENTING PHYTOPATHOGENIC FUNGI” (PI INDUSTRIES LTD., priority 2019, published 2022)

The compounds below were run on Phakopsora pachyrhizi (assay: Phakopsora pachyrhizi Test on Soybean (preventive activity, greenhouse)). Conditions: preventive spray on young Soybean plants, inoculated one day after treatment, rated 3, 7, 10 and 15 days after application, read-out: Efficacy (% control), disease severity compared to the untreated check.
Type: in vivo
Method: Compounds were dissolved in 2% dimethyl sulfoxide/acetone and then mixed with water containing an emulsifier to a calibrated spray volume of 50 mL. This 50 mL spray solution was poured into spray bottles for further applications. To test the preventive activity of compounds, healthy young Soybean plants raised in the greenhouse were sprayed with the active compound preparation at the stated application rates inside the spray cabinets using hollow cone nozzles. One day after treatment, the plants were inoculated with a spore suspension containing 2×10^5 Phakopsora pachyrhizi conidia. The inoculated plants were then kept in a greenhouse chamber at 22-24° C. temperature and 80-90% relative humidity for disease expression. A visual assessment of the compound's performance was carried out by rating the disease severity (0-100% scale) on treated plants 3, 7, 10 and 15 days after application. Efficacy (% control) of the compounds was calculated by comparing the disease rating in the treatment with the one of the untreated control. The sprayed plants were also assessed for plant compatibility by recording symptoms like necrosis, chlorosis and stunting.

Structure (SMILES)	pest or weed control at 500 ppm [%]
COc1ccc(NC(=O)c2cn3ccc(-c4noc(C(F)(F)F)n4)cc3n2)cc1 [Compound 2, N-(4-methoxyphenyl)-7-(5-(trifluoromethyl)-1,2,4-oxadiazol-3-yl)imidazo[1,2-a]pyridine-2-carboxamide]	≥ 70
CN(C(=O)c1cn2ccc(-c3noc(C(F)(F)F)n3)cc2n1)c1ccc(Cl)cc1 [Compound 12, N-(4-chlorophenyl)-N-methyl-7-(5-(trifluoromethyl)-1,2,4-oxadiazol-3-yl)imidazo[1,2-a]pyridine-2-carboxamide]	≥ 70
O=C(NCc1cn2cc(-c3noc(C(F)(F)F)n3)ccc2n1)c1cccc(Cl)c1 [Compound 85, 3-chloro-N-((6-(5-(trifluoromethyl)-1,2,4-oxadiazol-3-yl)imidazo[1,2-a]pyridin-2-yl)methyl)benzamide]	≥ 70
O=C(NCc1cn2cc(-c3noc(C(F)(F)F)n3)ccc2n1)c1ccc(OC(F)(F)F)cc1 [Compound 89, 4-(trifluoromethoxy)-N-((6-(5-(trifluoromethyl)-1,2,4-oxadiazol-3-yl)imidazo[1,2-a]pyridin-2-yl)methyl)benzamide]	≥ 70
O=C(Cc1ccccc1)NCc1cn2cc(-c3noc(C(F)(F)F)n3)ccc2n1 [Compound 94, 2-phenyl-N-((6-(5-(trifluoromethyl)-1,2,4-oxadiazol-3-yl)imidazo[1,2-a]pyridin-2-yl)methyl)acetamide]	≥ 70
Fc1ccc(SCc2cn3cc(-c4noc(C(F)(F)F)n4)ccc3n2)cc1 [Compound 105, 3-(2-(((4-fluorophenyl)thio)methyl)imidazo[1,2-a]pyridin-6-yl)-5-(trifluoromethyl)-1,2,4-oxadiazole]	≥ 70
Fc1ccccc1SCc1cn2cc(-c3noc(C(F)(F)F)n3)ccc2n1 [Compound 106, 3-(2-(((2-fluorophenyl)thio)methyl)imidazo[1,2-a]pyridin-6-yl)-5-(trifluoromethyl)-1,2,4-oxadiazole]	≥ 70
CCCSCc1cn2cc(-c3noc(C(F)(F)F)n3)ccc2n1 [Compound 107, 3-(2-((propylthio)methyl)imidazo[1,2-a]pyridin-6-yl)-5-(trifluoromethyl)-1,2,4-oxadiazole]	≥ 70
COc1ccc(CSCc2cn3cc(-c4noc(C(F)(F)F)n4)ccc3n2)cc1 [Compound 109, 3-(2-(((4-methoxybenzyl)thio)methyl)imidazo[1,2-a]pyridin-6-yl)-5-(trifluoromethyl)-1,2,4-oxadiazole]	≥ 70
FC(F)(F)c1nc(-c2ccc3nc(CSc4ccc(Cl)c(Cl)c4)cn3c2)no1 [Compound 110, 3-(2-(((3,4-dichlorophenyl)thio)methyl)imidazo[1,2-a]pyridin-6-yl)-5-(trifluoromethyl)-1,2,4-oxadiazole]	≥ 70
O=S(=O)(Cc1cn2cc(-c3noc(C(F)(F)F)n3)ccc2n1)c1cccc(F)c1 [Compound 120, 3-(2-(((3-fluorophenyl)sulfonyl)methyl)imidazo[1,2-a]pyridin-6-yl)-5-(trifluoromethyl)-1,2,4-oxadiazole]	≥ 70
O=S(=O)(Cc1cn2cc(-c3noc(C(F)(F)F)n3)ccc2n1)c1ccc(F)cc1 [Compound 121, 3-(2-(((4-fluorophenyl)sulfonyl)methyl)imidazo[1,2-a]pyridin-6-yl)-5-(trifluoromethyl)-1,2,4-oxadiazole]	≥ 70
COc1ccc(CS(=O)(=O)Cc2cn3cc(-c4noc(C(F)(F)F)n4)ccc3n2)cc1 [Compound 122, 3-(2-(((4-methoxybenzyl)sulfonyl)methyl)imidazo[1,2-a]pyridin-6-yl)-5-(trifluoromethyl)-1,2,4-oxadiazole]	≥ 70
[O-][S+](Cc1cn2cc(-c3noc(C(F)(F)F)n3)ccc2n1)c1ccc(Cl)c(Cl)c1 (stereo not drawn) [Compound 126, 3-(2-(((3,4-dichlorophenyl)sulfinyl)methyl)imidazo[1,2-a]pyridin-6-yl)-5-(trifluoromethyl)-1,2,4-oxadiazole]	≥ 70
[O-][S+](Cc1cn2cc(-c3noc(C(F)(F)F)n3)ccc2n1)c1cccc(Cl)c1 (stereo not drawn) [Compound 127, 3-(2-(((3-chlorophenyl)sulfinyl)methyl)imidazo[1,2-a]pyridin-6-yl)-5-(trifluoromethyl)-1,2,4-oxadiazole]	≥ 70
CS(=O)(=NC(=O)Cc1cn2cc(-c3noc(C(F)(F)F)n3)ccc2n1)c1ccccc1 (stereo not drawn) [Compound 129, N-(methyl(oxo)(phenyl)-λ^6-sulfanylidene)-2-(6-(5-(trifluoromethyl)-1,2,4-oxadiazol-3-yl)imidazo[1,2-a]pyridin-2-yl)acetamide]	≥ 70
CS(=O)(=NC(=O)Cc1cn2cc(-c3noc(C(F)(F)F)n3)ccc2n1)c1ccccc1F (stereo not drawn) [Compound 130, N-((2-fluorophenyl)(methyl)(oxo)-λ^6-sulfaneylidene)-2-(6-(5-(trifluoromethyl)-1,2,4-oxadiazol-3-yl)imidazo[1,2-a]pyridin-2-yl)acetamide]	≥ 70
N=S(=O)(Cc1cn2ccc(-c3noc(C(F)(F)F)n3)cc2n1)c1ccccc1 (stereo not drawn) [Compound 164, imino(phenyl)((7-(5-(trifluoromethyl)-1,2,4-oxadiazol-3-yl)imidazo[1,2-a]pyridin-2-yl)methyl)-λ^6-sulfanone]	≥ 70
COc1ccc(S(=N)(=O)Cc2cn3ccc(-c4noc(C(F)(F)F)n4)cc3n2)cc1 (stereo not drawn) [Compound 165, imino(4-methoxyphenyl)((7-(5-(trifluoromethyl)-1,2,4-oxadiazol-3-yl)imidazo[1,2-a]pyridin-2-yl)methyl)-λ^6-sulfanone]	≥ 70
N=S(=O)(Cc1cn2ccc(-c3noc(C(F)(F)F)n3)cc2n1)c1ccc(Cl)cc1 (stereo not drawn) [Compound 166, (4-chlorophenyl)(imino)((7-(5-(trifluoromethyl)-1,2,4-oxadiazol-3-yl)imidazo[1,2-a]pyridin-2-yl)methyl)-λ^6-sulfanone]	≥ 70

The compounds below were run on Alternaria solani (assay: Alternaria solani (Early Blight of Tomato/Potato): radial mycelial growth on potato dextrose agar). Conditions: 168 h, potato dextrose agar, 25° C., 60% relative humidity, seven days, read-out: control (radial growth compared to the untreated check).
Type: cell-based
Method: Compounds were dissolved in 0.3% dimethyl sulfoxide and then added to potato dextrose agar medium just prior to dispensing it into petri dishes. 5 mL medium with the compound in the desired concentration was dispensed into 60 mm sterile petri-plates. After solidification each plate was seeded with a 5 mm size mycelial disc taken from the periphery of an actively growing virulent culture plate. Plates were incubated in growth chambers at 25° C. temperature and 60% relative humidity for seven days and then the radial growth was measured and compared to that of the untreated control. Compounds 2 85 89 92 94 108 113 114 131 138 142 143

Structure (SMILES)	inhibition of growth at 300 ppm [%]
COc1ccc(NC(=O)c2cn3ccc(-c4noc(C(F)(F)F)n4)cc3n2)cc1 [Compound 2, N-(4-methoxyphenyl)-7-(5-(trifluoromethyl)-1,2,4-oxadiazol-3-yl)imidazo[1,2-a]pyridine-2-carboxamide]	≥ 70
O=C(NCc1cn2cc(-c3noc(C(F)(F)F)n3)ccc2n1)c1cccc(Cl)c1 [Compound 85, 3-chloro-N-((6-(5-(trifluoromethyl)-1,2,4-oxadiazol-3-yl)imidazo[1,2-a]pyridin-2-yl)methyl)benzamide]	≥ 70
O=C(NCc1cn2cc(-c3noc(C(F)(F)F)n3)ccc2n1)c1ccc(OC(F)(F)F)cc1 [Compound 89, 4-(trifluoromethoxy)-N-((6-(5-(trifluoromethyl)-1,2,4-oxadiazol-3-yl)imidazo[1,2-a]pyridin-2-yl)methyl)benzamide]	≥ 70
O=C(Cc1ccccc1)NCc1cn2cc(-c3noc(C(F)(F)F)n3)ccc2n1 [Compound 94, 2-phenyl-N-((6-(5-(trifluoromethyl)-1,2,4-oxadiazol-3-yl)imidazo[1,2-a]pyridin-2-yl)methyl)acetamide]	≥ 70
FC(F)(F)c1nc(-c2ccc3nc(CSCc4ccccc4)cn3c2)no1 [Compound 108, 3-(2-((benzylthio)methyl)imidazo[1,2-a]pyridin-6-yl)-5-(trifluoromethyl)-1,2,4-oxadiazole]	≥ 70
CS(=O)(=NC(=O)Cc1cn2cc(-c3noc(C(F)(F)F)n3)ccc2n1)c1cccc(F)c1 (stereo not drawn) [Compound 131, N-((3-fluorophenyl)(methyl)(oxo)-λ^6-sulfaneylidene)-2-(6-(5-(trifluoromethyl)-1,2,4-oxadiazol-3-yl)imidazo[1,2-a]pyridin-2-yl)acetamide]	≥ 70
CS(=O)(=NC(=O)Cc1cn2cc(-c3noc(C(F)(F)F)n3)ccc2n1)c1ccc(Cl)c(Cl)c1 (stereo not drawn) [Compound 143, N-((3,4-dichlorophenyl)(methyl)(oxo)-λ^6-sulfaneylidene)-2-(6-(5-(trifluoromethyl)-1,2,4-oxadiazol-3-yl)imidazo[1,2-a]pyridin-2-yl)acetamide]	≥ 70
Cc1ccccc1S(C)(=O)=NC(=O)Cc1cn2cc(-c3noc(C(F)(F)F)n3)ccc2n1 (stereo not drawn) [Compound 148, N-(methyl(oxo)(o-tolyl)-λ^6-sulfaneylidene)-2-(6-(5-(trifluoromethyl)-1,2,4-oxadiazol-3-yl)imidazo[1,2-a]pyridin-2-yl)acetamide]	≥ 70
CS(=O)(=NC(=O)Cc1cn2cc(-c3noc(C(F)(F)F)n3)ccc2n1)c1cccc(Cl)c1 (stereo not drawn) [Compound 149, N-((3-chlorophenyl)(methyl)(oxo)-λ^6-sulfaneylidene)-2-(6-(5-(trifluoromethyl)-1,2,4-oxadiazol-3-yl)imidazo[1,2-a]pyridin-2-yl)acetamide]	≥ 70

What follows are compounds tested on Pyricularia Oryzae (assay: microbe, parasite or virus in culture). Conditions: 168 h, read-out: control (radial growth compared to the untreated check).
Type: cell-based

Structure (SMILES)	inhibition of growth at 300 ppm [%]
CN(C(=O)c1cn2ccc(-c3noc(C(F)(F)F)n3)cc2n1)c1ccc(Cl)cc1 [Compound 12, N-(4-chlorophenyl)-N-methyl-7-(5-(trifluoromethyl)-1,2,4-oxadiazol-3-yl)imidazo[1,2-a]pyridine-2-carboxamide]	≥ 70
COCCS(=O)(=NC(=O)Cc1cn2cc(-c3noc(C(F)(F)F)n3)ccc2n1)c1ccc(Cl)cc1 (stereo not drawn) [Compound 136, N-((4-chlorophenyl)(2-methoxyethyl)(oxo)-λ^6-sulfaneylidene)-2-(6-(5-(trifluoromethyl)-1,2,4-oxadiazol-3-yl)imidazo[1,2-a]pyridin-2-yl)acetamide]	≥ 70
CS(=O)(=NC(=O)Cc1cn2cc(-c3noc(C(F)(F)F)n3)ccc2n1)c1cc(Cl)cc(Cl)c1 (stereo not drawn) [Compound 140, N-((3,5-dichlorophenyl)(methyl)(oxo)-λ^6-sulfaneylidene)-2-(6-(5-(trifluoromethyl)-1,2,4-oxadiazol-3-yl)imidazo[1,2-a]pyridin-2-yl)acetamide]	≥ 70
CS(=O)(Cc1cn2ccc(-c3noc(C(F)(F)F)n3)cc2n1)=NC(=O)c1ccccc1C(F)(F)F (stereo not drawn) [Compound 161, N-(methyl(oxo)((7-(5-(trifluoromethyl)-1,2,4-oxadiazol-3-yl)imidazo[1,2-a]pyridin-2-yl)methyl)-λ^6-sulfanylidene)-2-(trifluoromethyl)benzamide]	≥ 70
